Experimental data: patent US10604541B2, “Glucokinase activators and methods of using same” (BRISTOL-MYERS SQUIBB COMPANY, priority 2016, dated 2020)
In brackets after ≈: the same amount, converted by molar mass. Where two headings read alike, the source gives them in different places.

Assays:
CYP450 2D6 = CYP450 2D6 (Homo sapiens, UniProt P10635); experiment: CYP450 2D6 inhibition; format: in vitro ADME
CYP450 2C19 = CYP450 2C19 (Homo sapiens, UniProt P33261); experiment: CYP450 2C19 inhibition; format: in vitro ADME
Human Glucokinase = target: T1, Human Glucokinase (Homo sapiens, UniProt P35557); experiment: Glucokinase tandem enzymatic assay (human GK); format: biochemical
T1 construct: Full-length human hepatic GK (untagged) was expressed; made in house; host or cells: E. coli BL21 STAR (DE3)pLysS
T1 sequence (P35557 1-466 isoform P35557-2): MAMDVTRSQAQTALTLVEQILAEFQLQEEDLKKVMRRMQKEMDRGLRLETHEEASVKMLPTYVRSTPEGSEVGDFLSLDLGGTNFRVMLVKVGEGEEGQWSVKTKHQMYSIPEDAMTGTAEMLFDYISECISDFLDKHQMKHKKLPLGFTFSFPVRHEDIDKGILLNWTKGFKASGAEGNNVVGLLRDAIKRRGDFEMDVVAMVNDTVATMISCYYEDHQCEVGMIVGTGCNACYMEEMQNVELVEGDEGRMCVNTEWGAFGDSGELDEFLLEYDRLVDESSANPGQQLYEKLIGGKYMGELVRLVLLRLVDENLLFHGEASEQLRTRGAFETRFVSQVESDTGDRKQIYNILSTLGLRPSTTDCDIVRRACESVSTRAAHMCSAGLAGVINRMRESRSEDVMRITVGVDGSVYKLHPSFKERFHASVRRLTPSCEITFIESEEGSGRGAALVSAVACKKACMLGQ
Protocol: Enzymatic activity of human glucokinase (GK) was measured by incubating GK, ATP, and glucose for discrete time periods followed by quenching with EDTA (ethylenediamine tetra-acetic acid). Relative amounts of product glucose-6-phosphate (G6P) were measured by then running a detection assay using G6P dehydrogenase and measuring the conversion of ThioNAD (thio-nicotinamide adenine dinucleotide) to ThioNADH (thio-dihydronicotinamide adenine dinucleotide) at a wavelength of 405 nm. This “uncoupled” enzymatic reaction is denoted as the GK “tandem” assay. Activation of GK by the compound can be assessed using this assay. The GK tandem assay protocol described below was followed using a range of activator compound concentrations from 0 to 100 μM at 5 and 12 mM of glucose. Human full-length glucokinase (GK, 15 nM) was incubated with 5 or 12 mM glucose in a 384 well black microtiter plate with a clear bottom. To initiate the GK reaction, magnesium-ATP (3 mM final concentration) was added to GK in buffer (final buffer conditions of 25 mM HEPES buffer, pH 7.1, containing 1 mM dithiothreitol and 5% DMSO). The total reaction volume was 20 μL. The reaction was allowed to proceed for ten minutes and was then quenched with 5 μL EDTA; 45 mM final). The components of the detection reaction, ThioNAD and G6PDH (glucose-6-phosphate dehydrogenase) (final concentrations of 650 μM and 3.33 Units, respectively), were then added together in a volume of 25 μL, (to give a total volume of 50 μL). Absorbance measurements were made at 405 nm on a SPECTRAMAX® Plus 384 absorbance plate reader (Molecular Devices). Absorbance was read, background glucose-6-phosphate levels were subtracted, after which activation was calculated as a percentage of control activity. Control activity was determined using GK in the presence of vehicle (DMSO), with background glucose-6-phosphate subtracted. Background glucose-6-phosphate was determined by pre-quenching GK with EDTA prior to reaction initiation with ATP. […]

[1] = system: male DIO (diet-induced obese) C57BL/6J mice; experiment: Oral glucose tolerance test (OGTT) in DIO mice; format: in vivo, mouse
Protocol: Oral glucose tolerance tests were carried out on male DIO (diet-induced obese) C57BL/6J mice fed a high fat diet (60% kcal from fat) for 26 weeks prior to experimentation. Mice were fasted overnight before use for experiments. A test compound or vehicle (either: 1) 40% PEG 400+10% Cremophore+50% water or 2) 10% dimethyl acetamide+10% ethanol+10% Cremophore+70% water) was given orally 60 min before oral administration of a glucose solution at a dose of 2 g/kg body weight (oral glucose tolerance test; OGTT). Blood glucose levels were measured from tail-bled samples taken at different time points before and after administration of glucose (time course of 2 hours). A time curve of the blood glucose was generated and the change from baseline area-under-the curve (ΔAUC) from 0-120 min was calculated (the time glucose administration being time zero).

[2] = Metabolic stability in human liver microsomes; format: in vitro ADME
[3] = Pharmacokinetic study in mice (plasma and liver); format: in vivo; conditions: male, C57BL/6J, mouse, C57/B16J mice, 10 mg/kg oral
Protocol: Pharmacokinetic (PK) screening studies were carried out by methods known to one of ordinary skill in the art. For example, study compounds were administered orally to male C57 Black6j (C57B16J) mice (N=3 per time point) at 10 mg/kg as solutions in a PEG400/Cremphor EL/water (40/10/50) vehicle. The mice were fasted overnight prior to the PK study. Blood samples were taken at 0.5, 1, 2, and 4 hr post dose by cardiac bleeding. Blood samples (˜0.2 mL) were added with K2EDTA and centrifuged at 4° C. (1500-2000×g) to obtain plasma. Liver samples (N=3) were collected at 1 hr post dose. The liver tissues were homogenized with 3 volumes of water to form uniform homogenates. Both plasma and liver samples were stored at −20° C. before they were analyzed by LC/MS/MS. The plasma AUC were calculated using linear and log trapezoidal summations. The liver-to-plasma (L/P) ratio was calculated by dividing the total concentration in liver with plasma concentrations for respective mice. The average of L/P ratios from 3 mice was reported together with the standard deviation.

CYP450 3A4 = CYP450 3A4 (Homo sapiens, UniProt P08684); experiment: CYP450 3A4 inhibition; format: in vitro ADME
CYP450 1A2 = target: T2, CYP450 1A2 (Homo sapiens, UniProt P05177); experiment: CYP450 1A2 inhibition; format: in vitro ADME
T2 sequence (P05177 1-516): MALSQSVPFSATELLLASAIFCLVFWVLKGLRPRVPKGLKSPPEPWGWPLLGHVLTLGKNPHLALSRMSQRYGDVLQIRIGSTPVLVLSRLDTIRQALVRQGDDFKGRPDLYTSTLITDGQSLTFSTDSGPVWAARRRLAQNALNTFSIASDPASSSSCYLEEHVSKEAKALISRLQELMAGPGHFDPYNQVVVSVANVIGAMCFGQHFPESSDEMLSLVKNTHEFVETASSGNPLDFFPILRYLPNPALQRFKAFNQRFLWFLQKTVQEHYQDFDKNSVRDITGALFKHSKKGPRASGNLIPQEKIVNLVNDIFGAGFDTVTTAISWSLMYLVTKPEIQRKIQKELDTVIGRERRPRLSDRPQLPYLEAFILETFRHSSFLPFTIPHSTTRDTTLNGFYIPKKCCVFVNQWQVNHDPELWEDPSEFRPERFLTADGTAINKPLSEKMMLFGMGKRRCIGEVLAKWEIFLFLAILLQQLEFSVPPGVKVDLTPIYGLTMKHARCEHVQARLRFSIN

Aqueous solubility = format: physicochemical; conditions: aqueous medium (not further specified)
CYP450 2C9 = CYP450 2C9 (Homo sapiens, UniProt P11712); experiment: CYP450 2C9 inhibition; format: in vitro ADME
CYP450 2C8 = target: T3, CYP450 2C8 (Homo sapiens, UniProt P10632); experiment: CYP450 2C8 inhibition; format: in vitro ADME
T3 sequence (P10632 1-490): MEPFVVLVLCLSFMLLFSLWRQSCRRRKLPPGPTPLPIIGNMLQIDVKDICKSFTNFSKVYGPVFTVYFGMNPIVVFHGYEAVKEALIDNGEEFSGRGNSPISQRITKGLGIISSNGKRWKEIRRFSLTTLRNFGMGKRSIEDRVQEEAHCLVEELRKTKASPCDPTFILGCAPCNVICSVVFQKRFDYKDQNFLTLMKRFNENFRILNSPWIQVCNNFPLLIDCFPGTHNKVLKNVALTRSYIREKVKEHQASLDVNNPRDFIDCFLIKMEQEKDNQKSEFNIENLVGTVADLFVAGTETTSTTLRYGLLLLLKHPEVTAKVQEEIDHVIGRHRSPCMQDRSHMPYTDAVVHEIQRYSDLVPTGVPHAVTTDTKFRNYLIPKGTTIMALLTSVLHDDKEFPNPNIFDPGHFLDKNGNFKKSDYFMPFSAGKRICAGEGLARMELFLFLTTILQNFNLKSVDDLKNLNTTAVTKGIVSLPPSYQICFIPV

Mouse Glucokinase = target: T4, Mouse Glucokinase (Mus musculus, UniProt P52792); experiment: Glucokinase activation, mouse GK; format: biochemical
T4 sequence (P52792 1-465): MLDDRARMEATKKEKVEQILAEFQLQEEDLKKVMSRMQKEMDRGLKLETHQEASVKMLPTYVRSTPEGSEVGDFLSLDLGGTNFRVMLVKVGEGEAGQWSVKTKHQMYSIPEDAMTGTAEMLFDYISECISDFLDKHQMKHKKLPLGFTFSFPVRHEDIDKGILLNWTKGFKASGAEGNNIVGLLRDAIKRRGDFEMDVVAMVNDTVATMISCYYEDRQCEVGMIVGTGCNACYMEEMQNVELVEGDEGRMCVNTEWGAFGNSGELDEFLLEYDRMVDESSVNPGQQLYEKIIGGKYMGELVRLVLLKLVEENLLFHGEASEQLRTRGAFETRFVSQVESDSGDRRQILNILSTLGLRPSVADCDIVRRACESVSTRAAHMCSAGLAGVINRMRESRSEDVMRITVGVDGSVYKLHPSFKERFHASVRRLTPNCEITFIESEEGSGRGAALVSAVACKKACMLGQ

[4] = Metabolic stability, mouse; format: in vitro ADME

Chain of CYP450 3A4 (P08684 whole entry): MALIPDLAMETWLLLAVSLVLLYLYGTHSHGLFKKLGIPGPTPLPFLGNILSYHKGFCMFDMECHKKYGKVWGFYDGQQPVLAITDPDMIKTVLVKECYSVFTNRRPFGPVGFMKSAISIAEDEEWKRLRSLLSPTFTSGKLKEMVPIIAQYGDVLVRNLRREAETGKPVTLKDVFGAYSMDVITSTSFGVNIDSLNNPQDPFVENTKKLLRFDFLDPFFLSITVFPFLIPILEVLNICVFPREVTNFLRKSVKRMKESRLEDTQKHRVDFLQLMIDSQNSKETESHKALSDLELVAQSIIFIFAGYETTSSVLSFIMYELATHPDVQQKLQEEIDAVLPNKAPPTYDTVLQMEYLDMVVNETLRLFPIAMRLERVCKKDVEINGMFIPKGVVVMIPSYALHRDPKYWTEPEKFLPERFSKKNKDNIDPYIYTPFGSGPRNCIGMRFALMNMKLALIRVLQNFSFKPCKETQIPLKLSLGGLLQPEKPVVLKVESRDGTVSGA
Chain of CYP450 2C9 (P11712 whole entry): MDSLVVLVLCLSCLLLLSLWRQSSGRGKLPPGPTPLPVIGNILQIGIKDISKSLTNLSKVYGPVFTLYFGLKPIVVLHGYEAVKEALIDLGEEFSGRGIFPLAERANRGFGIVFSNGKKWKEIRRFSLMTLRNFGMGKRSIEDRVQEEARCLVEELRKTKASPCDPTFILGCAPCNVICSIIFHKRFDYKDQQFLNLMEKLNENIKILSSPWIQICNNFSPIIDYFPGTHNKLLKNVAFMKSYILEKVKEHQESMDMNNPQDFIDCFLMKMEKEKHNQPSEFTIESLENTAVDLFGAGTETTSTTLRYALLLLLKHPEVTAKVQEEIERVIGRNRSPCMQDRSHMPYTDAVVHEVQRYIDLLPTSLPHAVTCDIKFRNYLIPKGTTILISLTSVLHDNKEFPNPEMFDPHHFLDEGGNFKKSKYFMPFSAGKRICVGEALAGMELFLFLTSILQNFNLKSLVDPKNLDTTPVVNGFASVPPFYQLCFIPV
Chain of CYP450 2D6 (P10635 whole entry): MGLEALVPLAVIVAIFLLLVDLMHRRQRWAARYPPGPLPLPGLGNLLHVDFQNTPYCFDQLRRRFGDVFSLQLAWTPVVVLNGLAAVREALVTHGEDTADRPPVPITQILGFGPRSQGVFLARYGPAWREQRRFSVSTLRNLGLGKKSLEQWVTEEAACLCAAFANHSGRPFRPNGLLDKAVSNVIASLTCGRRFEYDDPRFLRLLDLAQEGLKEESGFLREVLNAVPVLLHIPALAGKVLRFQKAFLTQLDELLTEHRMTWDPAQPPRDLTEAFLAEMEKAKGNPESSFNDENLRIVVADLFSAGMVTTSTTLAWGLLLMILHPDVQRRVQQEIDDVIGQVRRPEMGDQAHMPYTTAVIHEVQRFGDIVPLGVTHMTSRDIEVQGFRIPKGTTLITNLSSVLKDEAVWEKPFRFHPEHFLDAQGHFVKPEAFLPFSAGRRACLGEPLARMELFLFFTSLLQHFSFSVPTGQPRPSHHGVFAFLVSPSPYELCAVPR
Chain of CYP450 2C19 (P33261 whole entry): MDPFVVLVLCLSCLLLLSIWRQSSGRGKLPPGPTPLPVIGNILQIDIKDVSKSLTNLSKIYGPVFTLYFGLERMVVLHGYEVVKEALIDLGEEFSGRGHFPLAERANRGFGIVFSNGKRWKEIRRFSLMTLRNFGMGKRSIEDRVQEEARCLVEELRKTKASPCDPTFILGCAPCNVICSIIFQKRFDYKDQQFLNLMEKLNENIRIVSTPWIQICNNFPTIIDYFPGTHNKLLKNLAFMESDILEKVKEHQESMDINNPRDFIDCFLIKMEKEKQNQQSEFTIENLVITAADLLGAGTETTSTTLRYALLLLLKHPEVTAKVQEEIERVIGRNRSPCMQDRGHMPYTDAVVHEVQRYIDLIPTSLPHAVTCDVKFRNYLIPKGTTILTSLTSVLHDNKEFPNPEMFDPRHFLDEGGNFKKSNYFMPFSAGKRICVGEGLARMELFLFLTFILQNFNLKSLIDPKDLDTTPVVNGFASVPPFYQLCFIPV

CC[C@@H](COC)Oc1cc(Oc2ccc(S(C)(=O)=O)nc2)cc(C(=O)Nc2nc(CP3(=O)OCCCO3)cs2)c1 [Example 1, 3-(((1S)-1-(methoxymethyl)propyl)oxy)-5-((6-(methylsulfonyl)-3-pyridinyl)oxy)-N-(4-((2-oxido-1,3,2-dioxaphosphinan-2-yl)methyl)-1,3-thiazol-2-yl)benzamide]
IC50 (CYP450 2D6): > 40 µM | IC50 (CYP450 2C19): > 40 µM | EC50 (Human Glucokinase): 0.036 µM | IC50 (Human Glucokinase): 0.095 µM | Emax (Human Glucokinase; read-out: Human Glucokinase Ymax (maximal activation)): 194% | reduction in glucose AUC (after an oral glucose tolerance test in diet-induced obese mice) ([1]; 10 μmol/kg dose): 47% | Glucose lowering (AUC) (120 min) ([1]; OGTT, DIO mice, oral dose 10 μmol/kg, AUC 0-120 min): −47% | Metabolic Stability Human Liver Microsomes (0.5 μM) [2]: 80% | Kp at 1 h ([3]; liver/plasma, po, 10 mg/kg, read-out: Liver/Plasma ratio): ~39 | AUC(0-t) ([3]; plasma, 0-4 hr): 1.53 µM·h | concentration at 0.5 h ([3]; plasma, 0.5 hr post dose): 604 ± 234 nM | concentration at 1 h ([3]; plasma, 1 hr post dose, read-out: Plasma (1 hr)): 631 ± 286 nM | concentration at 2 h ([3]; plasma, 2 hr post dose): 398 ± 193 nM | concentration at 4 h ([3]; plasma, 4 hr post dose): 193 ± 133 nM | concentration at 1 h ([3]; liver concentration 1 hr post dose, read-out: Liver (1 hr)): 21600 ± 1360 nM | IC50 (CYP450 3A4): > 40 µM | IC50 (CYP450 1A2): > 40 µM | solubility (Aqueous solubility): 74 µg/mL (≈ 121 µM) | IC50 (CYP450 2C9): 26.8 µM | IC50 (CYP450 2C8): 24.6 µM | EC50 (Mouse Glucokinase): 0.037 µM | Emax (Mouse Glucokinase; read-out: Mouse Glucokinase Ymax (maximal activation)): 194% | Metabolic Stability Mouse (0.5 μM) [4]: 92%
